Experimental data published in patent publication US5091419A, “Diurea derivatives useful as medicaments and processes for the preparation thereof” (Yamanouchi Pharmaceutical Co., Ltd., priority 1988, dated 1992).

Molecular target: acyl CoA: cholesterol acyltransferase (ACAT)
Assay: Inhibiting activity against ACAT activity of rabbit's liver microsome
Format: biochemical
Settings: rabbit's liver microsome enzyme fraction, 1-14C-oleoyl CoA, 37° C.; read-out: Inhibiting activity against ACAT activity: IC (M) 50%
Method: Inhibiting activity against acyl CoA: cholesterol acyltransferase (ACAT) activity of rabbit's liver microsome According to Heider's method [J. G. Heider et al., J. of Lipid Res. Vol. 24, 1127-34 (1983)], rabbit's liver microsome was treated to obtain enzyme fraction. To 0.154M of phosphoric acid buffer solution (pH 7.4), 2 mM of dithiothreitol, 36 μM of bovine serum albumin and 10 to 100 μg of microsome fraction, liposome prepared by Suckling's method [K. E. […] Then, 36 μM oleoyl CoA containing 1-^14 C-oleoyl CoA was added and the whole mixture was heated for 10 minutes at the temperature of 37° C. The reaction was ceased by adding chloroform/methanol (=2/1). Upon stirring, cholesterol oleate extracted into chloroform layer was separated by thin layer chromatography and the radioactivity was then determined as ACAT activity.

## O=C(Nc1ccc(F)cc1F)N(Cc1cccc(CN(C(=O)Nc2ccc(F)cc2F)C2CCCCCC2)c1)C1CCCCCC1 [Example 1, 1,3-bis[[1-cycloheptyl-3-(2,4-difluorophenyl)ureido]methyl]benzene]
  IC50: 1.8e-08 M
